Experimental data reported in US4061779A, “Naphthalene derivatives having anti-inflammatory activity” (Beecham Group Limited, priority 1973, dated 1977).
Where two headings read alike, the source gives them in different places.

Tests used:
[1] = test system: Rat Paw Carrageenin; test: standard Rat Paw Carrageenin Test, anti-inflammatory activity; assay type: in vivo
Description: (§1) Using a conventional Allen-Doisy Test, the Oestrogenic activity of certain compounds of the invention was ascertained. The anti-inflammatory activity of certain compounds of the invention was ascertained by using a standard Rat Paw Carrageenin Test.

[2] = test system: oestrogenicity; test: Allen-Doisy Test, oestrogenic activity (mouse); assay type: in vivo
Description: as §1

[3] = test system: oestrogenicity; test: Allen-Doisy Test, oestrogenic activity (rat); assay type: in vivo
Description: as §1

[4] = test system: Phenyl-p-quinone Induced Writhing; test: Phenyl-p-quinone Induced Writhing in Mice; assay type: in vivo; conditions: Mus musculus, po, read-out: ED50 for analgesic activity
Description: f. Phenyl-p-quinone Induced Writhing in Mice

[5] = test system: cultured mouse peritoneal macrophages; test: Macrophage Plasminogen Activator Release Test; assay type: cell-based; conditions: 1 mg/ml
Description: e. Macrophage Plasmongen Activator Release Test
On the test system of J. D. Vassalli et al., Cell, 8, 271-281 (1976), the compound […] caused 90% inhibition of the release of plasmogen activator from cultured mouse peritoneal macrophages.

[6] = General statements on gastro-intestinal irritation, oestrogenicity and anti-inflammatory activity; assay type: in vivo
[7] = test system: gastro intestinal tract; test: Long term toxicity tests, gastro-intestinal tolerance; assay type: in vivo, rat; conditions: 180 mg/kg p.o. for 28 days
[8] = test system: release of corticosteroids from the adrenal gland; test: Interactions with the Adrenal/Pituitary Axis; assay type: in vivo; conditions: 140 mg/kg p.o./day, five days
Description: h. Interactions with the Adrenal/Pitutary Axis

[9] = test system: UV Induced Erythrema; test: UV Induced Erythrema in Guinea Pigs; assay type: in vivo, guinea pig; conditions: Cavia porcellus, po
Description: b. UV Induced Erythrema in Guinea Pigs

[10] = test system: uterine weight; test: Oestrogenic Test in Rats (ovariectomised rats, uterine weight); assay type: in vivo, rat; conditions: 200 mg/kg p.o. and 600 mg/kg p.o., 4 days
Description: i. Oestrogenic Test in Rats

[11] = test system: Cotton Pellet Induced Granuloma; test: Cotton Pellet Induced Granuloma in Rats; assay type: in vivo, rat; conditions: 50 mg/kg p.o., day 0 to 5 days
Procedure: c. Cotton Pellet Induced Granuloma in Rats
Consistent activity (reducing induced granuloma by more than 30%) has been observed at 50 mg/kg p.o. dosed from day 0 to 5 days.

[12] = test system: Carrageenin Induced Oedema; test: Carrageenin Induced Oedema in Rats; assay type: in vivo, rat
Description: a. Carrageenin Induced Oedema in Rats

[13] = test system: gastric secretion / gastric damage; test: Gastric Damage in Pyloric Ligated Rats; assay type: in vivo; conditions: up to 200 mg/kg intra-duodenally, pyloric ligated rat
Description: 1. Gastric Damage in Pyloric Ligated Rats

[14] = test system: Adjuvant arthritis; test: Adjuvant Arthritis in Rats; assay type: in vivo, rat; conditions: 60 mg/kg p.o. daily
Procedure: d. Adjurant Arthritis in Rats
Adjuvant arthritis is reduced in rats by the daily administration of doses of 60 mg/kg p.o.

[15] = test system: seminal vesicles, prostate gland or levator ani muscles; test: Anabolic/Androgenic Activity in Rats; assay type: in vivo, rat; conditions: 200 mg/kg p.o.
Description: j. Anabolic/Adrogenic Activity in Rats

[16] = test system: pyresis induced by Shigella endotoxin; test: Anti-pyretic Effect in Rabbits; assay type: in vivo, rabbit; conditions: doses down to 100 mg/kg p.o.
Description: g. Anti-pyretic Effect in Rabbits

[17] = test system: gastric erosions or ulceration; test: Ulcerogenic Activity in Rats; assay type: in vivo, rat; conditions: 250 or 500 mg/kg p.o.
Description: m. Ulcerogenic Activity in Rats.

[18] = test system: endometrium; test: Gestagenic Activity in Rabbits (Clauberg test); assay type: in vivo, rabbit; conditions: 200 mg/kg p.o., 4 days
Description: k. Gestagenic Activity in Rabbits

COc1ccc2cc(C(C)C(C)=O)ccc2c1 (centres unmarked) [3-(6'-methoxy-2'-naphthyl)-butan-2-one, 3-(6'-methoxy-2'-napthyl)-butan-2-one]
Anti-inflammatory, rat carrageenan ([1]; 100 mg/kg orally): Active
Oestrogenicity, Allan-Doisy test ([2]; 50 mg/kg sub.cut.): Inactive
Oestrogenicity, Allan-Doisy test ([3]; 600 mg/kg orally): Inactive

COc1ccc2cc(C(C)CC(C)=O)ccc2c1 (centres unmarked) [4-(6'-methoxy-2'-naphthyl)-pentan-2-one]
Anti-inflammatory, rat carrageenan ([1]; 50 mg/kg orally): Slightly Active
Anti-inflammatory, rat carrageenan ([1]; 100 mg/kg orally, 1 hr. after dosing): Active
Anti-inflammatory, rat carrageenan ([1]; 300 mg/kg orally): Active
Oestrogenicity, Allan-Doisy test ([3]; 200 mg/kg orally): Inactive
Oestrogenicity, Allan-Doisy test ([3]; 300 mg/kg orally): Active

CCC(c1ccc2cc(OC)ccc2c1)C(C)(O)C(C)=O (centres unmarked) [3-hydroxy-3-methyl-4-(6'-methoxy-2'-naphthyl)-hexan-2-one]
Anti-inflammatory, rat carrageenan ([1]; 100 mg/kg orally): Inactive
Oestrogenicity, Allan-Doisy test ([2]; 50 mg/kg sub.cut.): Active

COc1ccc2cc(/C(C)=C/C(C)=O)ccc2c1 [trans-4-(6'-methoxy-2'-naphthyl)-pent-3-ene-2-one]
Anti-inflammatory, rat carrageenan ([1]; 100 mg/kg orally): Active
Oestrogenicity, Allan-Doisy test ([2]; 100 mg/kg sub.cut.): Inactive

COc1ccc2cc(C=CC(C)=O)ccc2c1 [4-(6-Methoxy-2-naphthyl)-3-buten-2-one]
Anti-inflammatory, rat carrageenan ([1]; 300 mg/kg orally): Active
Oestrogenicity, Allan-Doisy test ([3]; 300 mg/kg orally): Inactive

CC(=O)Oc1ccccc1C(=O)O [ASPIRIN, acetylsalicylic acid, reference compound]
ED50 [4]: ~60 mg/kg

COc1ccc2cc(C(C)C(C)(O)C(C)=O)ccc2c1 (centres unmarked) [3-hydroxy-3-methyl-4-(6'-methoxy-2'-naphthyl)-pentan-2-one]
Anti-inflammatory, rat carrageenan ([1]; 50 and 100 mg/kg orally): Active
Oestrogenicity, Allan-Doisy test ([2]; 100 mg/kg sub.cut.): Active

COc1ccc2cc(CCC(C)=O)ccc2c1 [4-(6'-methoxy-2'-naphthyl)butan-2-one]
inhibition of the release of plasminogen activator [5]: slight inhibition
ED50 ([4]; mice): ~110 mg/kg
oestrogenic effects or gastric-irritant effects ([6]; at the therapeutic dose): not causing either oestrogenic effects or pronounced gastric-irritant effects
anti-inflammatory activity ([6]; general statement): good spectrum of anti-inflammatory activity
anti-pyretic and analgesic activity ([6]; general statement): anti-pyretic and analgesic activity
hormone like activity ([6]; general statement): free of hormone like activity
therapeutic ratio based on gastro intestinal irritancy ([6]; general statement): good therapeutic ratio
gastro intestinal tolerance [7]: well tolerated
interference with release of corticosteroids in response to ACTH administration or to ether stress [8]: does not interfere
ED50 [9]: 9 to 15 mg/kg
increase in uterine weight [10]: did not result in any increase in uterine weight
changes in body weight or in weight of spleen, thymus, kidney, liver or adrenal glands [11]: not accompanied by marked changes
reduction in induced oedema volume ([12]; 5, 10, 35 and 70 mg/kg p.o.): significant reduction
ED25 ([12]; Rattus norvegicus, po, rats): 7 to 10 mg/kg
Activity in adrenalectomised rats ([12]; adrenalectomised rats): Activity is maintained
overt gastric damage [13]: nor did overt gastric damage result
systemically mediated effect on the volume of gastric secretion [13]: have not been found to have a systemically mediated effect
Adjuvant arthritis [14]: reduced
increase in weight of seminal vesicles, prostate gland or levator ani muscles ([15]; 4 days, castrated young male rats): did not result in any increase
interference with androgenic/anabolic activity of concomitantly administered testosterone ([15]; testosterone 1 mg/kg s.c.): did not interfere
reduction of pyresis induced by intravenous Shigella endotoxin [16]: reduced pyresis
gastric erosions, longer contact times ([17]; longer than 4 hours): in some cases to some degree of erosions
gastric erosions or ulceration ([17]; rats starved 18 hours, 1 or 4 hours after dosing): did not give rise to gastric erosions or ulceration
uterine hypertrophy or progestational changes in the endometrium [18]: did not result in uterine hypertrophy or progestational changes in the endometrium
